Measurements taken from PubChem BioAssay (NCI).
Several values for one entry are separate records, joined by “and”; a condition that tells them apart may be missing. Equal entries are not always repeated.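 The compound was tested at five concentrations on cells cultured in 96-well plates, with a 48-hour exposure period. GI50 marks 50% less growth. TGI: total growth inhibition.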 Where a SMILES comes first, the peptide text is derived from it. [ ]: non-standard residue; d: D form. The star is where a group is joined. NMeF = CN[CH](Cc1ccccc1)C(=O)O; NMeV = CN[CH](C(=O)O)C(C)C; Boc = CC(C)(C)OC(=O)*; OBn = c1ccc(CO*)cc1

How the values were obtained:
Assay in all cases: NCI-60 cell line screen, 48 h
CCRF-CEM leukemia = system: CCRF-CEM leukemia
HOP-62 NSCLC = system: HOP-62 NSCLC
MOLT-4 leukemia = system: MOLT-4 leukemia
NCI-H460 lung = system: NCI-H460 lung
COLO 205 colon = system: COLO 205 colon
SF-268 CNS = system: SF-268 CNS
SK-MEL-28 melanoma = system: SK-MEL-28 melanoma
K-562 leukemia = system: K-562 leukemia
SF-539 CNS = system: SF-539 CNS
SK-MEL-5 melanoma = system: SK-MEL-5 melanoma
HOP-92 NSCLC = system: HOP-92 NSCLC
OVCAR-5 ovarian = system: OVCAR-5 ovarian
MDA-MB-231 breast = system: MDA-MB-231 breast
HS 578T breast = system: HS 578T breast
MDA-MB-435 = system: MDA-MB-435

SMILES	TGI (CCRF-CEM leukemia)	TGI (HOP-62 NSCLC)	TGI (MOLT-4 leukemia)	TGI (NCI-H460 lung)	TGI (COLO 205 colon)	TGI (SF-268 CNS)	TGI (SK-MEL-28 melanoma)	TGI (K-562 leukemia)	TGI (SF-539 CNS)	TGI (SK-MEL-5 melanoma)	TGI (HOP-92 NSCLC)	TGI (OVCAR-5 ovarian)	TGI (MDA-MB-231 breast)	TGI (HS 578T breast)	TGI (MDA-MB-435)	GI50 (CCRF-CEM leukemia)	GI50 (MOLT-4 leukemia)	GI50 (K-562 leukemia)	GI50 (SF-539 CNS)	GI50 (OVCAR-5 ovarian)
Cc1ccc(Nc2cccc3c2C(=O)c2cccc(Nc4ccc(C)cc4S(=O)(=O)O)c2C3=O)c(S(=O)(=O)O)c1	> 100 µM	> 100 µM	> 100 µM	> 100 µM	> 100 µM	> 100 µM	> 100 µM	> 100 µM	> 100 µM	> 100 µM										
CNC(=O)C(C)Oc1ccc(OCC2CCCCC2)cc1 (stereo not drawn)	> 100 µM		> 100 µM	> 100 µM		> 100 µM	> 100 µM	> 100 µM	> 100 µM	> 100 µM										
CC1(C)c2ccccc2N2C(c3ccccc3)=NOC21C (stereo not drawn)	> 100 µM	> 100 µM	> 100 µM	> 100 µM	> 100 µM	> 100 µM	> 100 µM	> 100 µM	> 100 µM	> 100 µM	> 100 µM	> 100 µM								
CN(C)NC1=C([N+](=O)[O-])C=NN(c2ccccc2)C1	4.52 µM	4.33 µM	5.05 µM	4.1 µM	3.27 µM	3.51 µM	3.21 µM	6.15 µM	3.31 µM	6.41 µM	3.76 µM	3.04 µM								
S=C1NC2=C(CSC/C2=C\c2ccc(Cl)cc2)C(c2ccc(Cl)cc2)N1 (stereo not drawn)	70.9 µM	> 100 µM	> 100 µM	> 100 µM	32.7 µM	> 100 µM	> 100 µM	> 100 µM		37.3 µM	88.4 µM	> 100 µM	> 100 µM	> 100 µM						
C=C(C)[C@H]1CC[C@@]23O[C@@H]2[C@@H](C[C@@]2(C)CC(=O)[C@H](CC(=O)C1)O2)OC(=O)[C@@]12CC[C@H](C(=C)C)CC(=O)C[C@H]4O[C@](C)(CC4=O)C[C@@H](OC3=O)[C@@H]1O2	> 100 µM	> 100 µM	> 100 µM		> 100 µM		> 100 µM	> 100 µM	> 100 µM	> 100 µM	> 100 µM	> 100 µM	> 100 µM		> 100 µM					
O=C(c1cscc1CCc1ccccc1)c1cscc1CCc1ccccc1	> 100 µM	> 100 µM	> 100 µM	> 100 µM	> 100 µM	> 100 µM	> 100 µM	> 100 µM	> 100 µM	> 100 µM		> 100 µM	> 100 µM		> 100 µM					
CNc1cc([N+](=O)[O-])ccc1C(=O)N1CCC[C@H]1CO		> 100 µM	> 100 µM	> 100 µM		> 100 µM	> 100 µM	> 100 µM	> 100 µM		> 100 µM	> 100 µM	> 100 µM		> 100 µM					
CCN(CC)C(=O)CCn1cc(F)c(=O)[nH]c1=O	> 100 µM	> 100 µM	> 100 µM	> 100 µM	> 100 µM	> 100 µM	> 100 µM	> 100 µM	> 100 µM	> 100 µM		> 100 µM								
CC(C)C(NC(=O)OC(C)(C)C)C(=O)N(C)C(Cc1ccccc1)C(=O)N(C)C(C(=O)OCc1ccccc1)C(C)C (stereo not drawn) (Boc-Val-[NMeF]-[NMeV]-OBn; configuration not given here)	> 100 µM	> 100 µM	39.6 µM and 44 µM	> 100 µM	> 100 µM	> 100 µM	> 100 µM	95.6 µM and > 100 µM	> 100 µM	44.6 µM						17.8 µM and 39.1 µM	5.92 µM and 14.8 µM	12.1 µM and 51.4 µM	16.4 µM and 78.4 µM	
C=C1CC[C@@H]2C13[C@@H]1[C@H](CC(=O)[C@@]23C)C1(C)C (stereo partly drawn)		> 100 µM	> 100 µM	> 100 µM	> 100 µM	> 100 µM	> 100 µM	> 100 µM	> 100 µM	> 100 µM	> 100 µM	> 100 µM		> 100 µM	> 100 µM					
CCC12C=CCN(CCc3c([nH]c4ccccc34)/C=C\1)C2 (stereo not drawn)	> 100 µM	> 100 µM	> 100 µM	> 100 µM	> 100 µM	> 100 µM		> 100 µM	> 100 µM	> 100 µM										
CN(c1ccccc1)c1cc2ccccc2nn1	> 100 µM	> 100 µM	> 100 µM	> 100 µM	> 100 µM	> 100 µM	> 100 µM	> 100 µM	> 100 µM	> 100 µM	> 100 µM	> 100 µM								
CC[C@H](C)[C@@H]([C@@H](CC(=O)N1CCC[C@H]1[C@H](OC)[C@@H](C)C(=O)NCCc1ccccc1)OC)N(C)C(=O)C(NC(=O)[C@H](C(C)C)N(C)C)C(C)C (stereo partly drawn)		3.02 µM			0.000267 µM	> 10 µM	> 10 µM	> 10 µM				> 10 µM	0.00271 µM		0.000192 µM					0.000592 µM
Cc1cc(C)c(NS(=O)c2cccc(C(F)(F)F)c2)c(C)c1 (stereo not drawn)	> 100 µM	> 100 µM	> 100 µM	> 100 µM	> 100 µM	> 100 µM	> 100 µM	> 100 µM	> 100 µM		> 100 µM	> 100 µM			> 100 µM					
COc1cc(S(=O)(=O)Nc2ccc(-c3csc(N4C(=O)C(C)SC4c4cccs4)n3)cc2)ccc1Cl (stereo not drawn)	52.2 µM	> 100 µM	> 100 µM		49.4 µM	> 100 µM	69 µM	> 100 µM	> 100 µM	> 100 µM	> 100 µM	> 100 µM		> 100 µM	> 100 µM					
C=C1CN=C(Nc2ccc(Cl)cc2)S1	> 100 µM	> 100 µM	> 10 µM	> 100 µM	> 100 µM	> 100 µM	> 100 µM	> 100 µM	> 100 µM	> 100 µM	> 100 µM	> 100 µM	> 100 µM	> 100 µM						
